These results are taken from publication PMC5537346, “Characterisation and pharmacological analysis of a crustacean G protein-coupled receptor: the red pigment-concentrating hormone receptor of Daphnia pulex” (Scientific Reports, 2017).

The test concerns the target T1, Dappu-RPCHR (Daphnia pulex RPCH receptor) (Daphnia pulex, UniProt A0A240FBD5).
T1 sequence (A0A240FBD5 1-451): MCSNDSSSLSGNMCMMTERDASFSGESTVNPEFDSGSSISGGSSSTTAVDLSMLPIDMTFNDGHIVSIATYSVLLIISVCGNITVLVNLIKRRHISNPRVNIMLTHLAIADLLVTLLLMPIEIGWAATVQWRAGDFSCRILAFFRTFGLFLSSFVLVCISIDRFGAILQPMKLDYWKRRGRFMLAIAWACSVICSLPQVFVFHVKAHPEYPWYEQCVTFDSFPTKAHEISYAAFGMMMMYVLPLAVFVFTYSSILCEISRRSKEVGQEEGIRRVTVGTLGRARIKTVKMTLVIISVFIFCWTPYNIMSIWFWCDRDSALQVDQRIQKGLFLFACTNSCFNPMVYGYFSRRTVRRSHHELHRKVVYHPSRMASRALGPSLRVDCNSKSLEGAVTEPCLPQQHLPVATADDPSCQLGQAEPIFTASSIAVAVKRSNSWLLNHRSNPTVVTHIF
Put plainly: in vitro cell-based bioluminescence (aequorin Ca2+) assay on Dappu-RPCHR expressing CHO-WTA11 cells. The following applies: for fold lower affinity / potency relative to Dappu-RPCH: from EC50 values. The procedure:
Pharmacological analyses were performed in Chinese hamster ovary (CHO) WTA11 cells stably co-expressing the bioluminescent protein apoaequorin and the promiscuous Gα16 subunit, which couples most agonist-induced GPCRs to the phospholipase C and Ca^2+ pathway, irrespective of their natural signalling cascade.
CHO-WTA11 cells were cultured in monolayers in Dulbecco’s Modified Eagles Medium nutrient mixture F12-Ham (DMEM/F12) with L-glutamine, 15 mM HEPES, sodium bicarbonate and phenol red (Sigma-Aldrich) supplemented with 100 IU/ml penicillin and 100 µg/ml streptomycin (Gibco), 10% heat-inactivated fetal bovine serum (Gibco) and […] zeocin (Gibco). All cells were maintained in an incubator at 37 °C with a constant supply of 5% CO2.
Transfections with pcDNA3.1-Dappu-RPCHR or empty pcDNA3.1 vector were carried out in T75 flasks at 60–80% confluency. Transfection medium was prepared using the Lipofectamine LTX Kit (Invitrogen) with 2.5 ml Opti-MEM® (Gibco), 12.5 µl PlusTM Reagent and 5 µg vector construct in 5 ml polystyrene round-bottom tubes. After a 5 min incubation period at room temperature, 30 µl LTX was added to the medium. After a further incubation period of 30 min at room temperature, the medium was removed and DNA/LTX mix was added dropwise to the cells followed by 3 ml of fresh complete medium.
Following transfection, cells were incubated overnight (37 °C, 5% CO2), then 10 ml of cell medium was added followed by a second overnight incubation (37 °C, 5% CO2). Ligand-induced changes in intracellular Ca^2+ were then monitored in the cells as described below.
CHO-WTA11 cells transfected with receptor construct (or empty vector) plasmid were detached with PBS, complemented with 0.2% EDTA (pH 8.0), and rinsed off the flask with DMEM/F12 with L-glutamine and 15 mM HEPES (Sigma-Aldrich). The number of viable and nonviable cells was determined using a TC20 automated Cell Counter (BIO-RAD). The cells were pelleted for 5 minutes at 800 rpm and resuspended to a density of 5.10^6 cells/ml in sterile filtered bovine serum albumin (BSA) medium (DMEM/F12 with L-glutamine and 15 mM Hepes, supplemented with 0.1% BSA) and loaded with 5 µM Coelenterazine_h (Invitrogen) for 4 h in the dark, at room temperature, while gently shaking to reconstitute the holo-enzyme aequorin. After a 10-fold dilution, cell solution (50 µl) was delivered to each well in a 96-well plate (~25000 cells/well) and cells were exposed to potential ligands reconstituted in BSA medium and distributed across the plate. In every row, BSA medium alone was placed in one well to serve as the negative control (blank). The Ca^2+ response was recorded for 30 s on a Mithras LB 940 (Berthold Technologies). After 30 s, 0.1% Triton X-100, a non-ionic surfactant, was added to the same well to measure the total cellular Ca^2+ response. The total response (ligand + Triton X-100), which is directly related to the number of cells present in the well, was used to normalise the response. The response of each negative control was subtracted from the luminescence obtained for wells within the same row. Calculations were made using the output file from the Microwin software (Berthold Technologies) in Excel (Microsoft). Further analysis was done in GraphPad Prism 5.

Setting [1] is: Table 1, AKH/RPCH and related peptides, calculated from dose-response curves.
Setting [2] is: Table 2, analogues of Dappu-RPCH.

Like-named read-outs stand apart in the source and are kept apart here. Where a SMILES comes first, the peptide text is derived from it. [ ]: non-standard residue; d: D form. pGlu = O=C1CC[C@@H](C(=O)O)N1

In the case of `CC(C)C[C@H](NC(=O)[C@@H]1CCC(=O)N1)C(=O)N[C@@H](CC(N)=O)C(=O)N[C@@H](Cc1ccccc1)C(=O)N[C@@H](CO)C(=O)N[C@@H](CO)C(=O)NCC(=O)N[C@@H](Cc1c[nH]c2ccccc12)C(N)=O` [Nepci-AKH, pQLNFSSGWamide] ([pGlu]LNFSSGW-NH2), the “fold lower affinity / potency relative to Dappu-RPCH” value is given as “about 4 fold”. The EC50 (usually the concentration needed to bring the measured effect to its halfway point) under setting [1] was 272 pM.

Consider `CC(C)[C@H](NC(=O)[C@@H]1CCC(=O)N1)C(=O)N[C@@H](CC(N)=O)C(=O)N[C@@H](Cc1ccccc1)C(=O)N[C@@H](CO)C(=O)N[C@H](C(=O)N[C@@H](C)C(=O)N[C@@H](Cc1c[nH]c2ccccc12)C(N)=O)[C@@H](C)O` [[Ala^7]Dappu-RPCH, pQVNFSTAWamide] ([pGlu]VNFSTAW-NH2), for which, under setting [2], the EC50 was 355 pM.

Turning to `CC(C)[C@H](NC(=O)[C@@H]1CCC(=O)N1)C(=O)N[C@@H](CC(N)=O)C(=O)N[C@@H](Cc1ccccc1)C(=O)N[C@@H](CO)C(=O)N1CCC[C@H]1C(=O)N[C@@H](CO)C(=O)N[C@@H](Cc1c[nH]c2ccccc12)C(=O)NCC(=O)N[C@@H](CC(N)=O)C(N)=O` [Placa-HrTH, pQVNFSPSWGNamide] ([pGlu]VNFSPSWGN-NH2), a half-maximal effect (EC50) was put at 660 pM and the “fold lower affinity / potency relative to Dappu-RPCH” value was “ca. 10 fold”. Also, the EC50 under setting [1] is 664 pM.

Regarding `CC(C)[C@H](NC(=O)[C@@H]1CCC(=O)N1)C(=O)N[C@@H](C)C(=O)N[C@@H](Cc1ccccc1)C(=O)N[C@@H](CO)C(=O)N[C@H](C(=O)N[C@@H](CO)C(=O)N[C@@H](Cc1c[nH]c2ccccc12)C(N)=O)[C@@H](C)O` [[Ala^3]Dappu-RPCH, pQVAFSTSWamide] ([pGlu]VAFSTSW-NH2), the EC50 under setting [2] came out at 156000 pM.

Turning to pQVTFSRDWSPamide [Locmi-ACP], the “activation of Dappu-RPCHR (in words)” value (Locmi-ACP statement at 10 µM) was “only slightly active”. In addition, the “% of the maximum activation” value (peptide concentration of 10 µM) amounted to 30%.

Turning to `CC(C)[C@H](NC(=O)[C@@H]1CCC(=O)N1)C(=O)N[C@@H](CC(N)=O)C(=O)N[C@@H](Cc1ccccc1)C(=O)N[C@@H](CO)C(=O)N[C@@H](C)C(=O)N[C@@H](CO)C(=O)N[C@@H](Cc1c[nH]c2ccccc12)C(N)=O` [[Ala^6]Dappu-RPCH, pQVNFSASWamide] ([pGlu]VNFSASW-NH2), the EC50 under setting [2] was found to be 532 pM.

For the compound `CC(C)C[C@H](NC(=O)[C@@H]1CCC(=O)N1)C(=O)N[C@@H](CC(N)=O)C(=O)N[C@@H](Cc1ccccc1)C(=O)N[C@@H](CO)C(=O)N1CCC[C@H]1C(=O)NCC(=O)N[C@@H](Cc1c[nH]c2ccccc12)C(N)=O` [Panbo-RPCH, pQLNFSPGWamide] ([pGlu]LNFSPGW-NH2), the EC50 under setting [1] is 7930 pM.

Under setting [2], `CC(C)[C@H](NC(=O)[C@@H]1CCC(=O)N1)C(=O)N[C@@H](CC(N)=O)C(=O)N[C@@H](C)C(=O)N[C@@H](CO)C(=O)N[C@H](C(=O)N[C@@H](CO)C(=O)N[C@@H](Cc1c[nH]c2ccccc12)C(N)=O)[C@@H](C)O` [[Ala^4]Dappu-RPCH, pQVNASTSWamide] ([pGlu]VNASTSW-NH2) displayed an EC50 of 299000 pM.

Consider `CC(C)[C@H](NC(=O)[C@@H]1CCC(=O)N1)C(=O)N[C@@H](CC(N)=O)C(=O)N[C@@H](Cc1ccccc1)C(=O)N[C@@H](CO)C(=O)N[C@H](C(=O)N[C@@H](CCCCN)C(=O)N[C@@H](Cc1c[nH]c2ccccc12)C(N)=O)[C@@H](C)O` [Argsi-RPCH, pQVNFSTKWamide] ([pGlu]VNFSTKW-NH2), for which the EC50 under setting [1] is 21300 pM.

Regarding `CC(C)[C@H](NC(=O)[C@@H]1CCC(=O)N1)C(=O)N[C@@H](CC(N)=O)C(=O)N[C@@H](Cc1ccccc1)C(=O)N[C@H](C(=O)N1CCC[C@H]1C(=O)N[C@@H](CO)C(=O)N[C@@H](Cc1c[nH]c2ccccc12)C(N)=O)[C@@H](C)O` [Libau-AKH, pQVNFTPSWamide] ([pGlu]VNFTPSW-NH2), the EC50 under setting [1] was 179 pM.

Under setting [2], `CC(C)[C@H](NC(=O)[C@@H]1CCC(=O)N1)C(=O)N[C@@H](CC(N)=O)C(=O)N[C@@H](Cc1ccccc1)C(=O)N[C@@H](C)C(=O)N[C@H](C(=O)N[C@@H](CO)C(=O)N[C@@H](Cc1c[nH]c2ccccc12)C(N)=O)[C@@H](C)O` [[Ala^5]Dappu-RPCH, pQVNFATSWamide] ([pGlu]VNFATSW-NH2) came in with an EC50 of 3610 pM.
